Entries after “also recorded” stand apart in the source; their conditions may differ.
Legend:
[1] = test system: C57BL/6 mice; assay: Mouse air pouch model of in vivo chemotaxis towards LPS; conditions: for total amount of white blood cells recruited to the pouches: compound 5 µg with LPS 2 µg, 4 h after injection
Method: Air pouches were established by injecting C57BL/6 mice on dorsal sites with 3 mL filtered air (0.20 μm filter) on days 0 and 3. On day 6, test samples were injected in a total volume of 1 mL and at the indicated amount. After 4 h, mice were euthanized and the exudates of the pouches were collected after injection of 1 mL pyrogen-free PBS containing 20 U/mL heparin and 2% KnockOut™ Serum Replacement (Gibco, Waltham, MA, USA), and followed by 30 sec of gentle massage. This procedure was repeated twice with 2 mL buffer. Next, the pouch fluid was centrifuged (10 min, 500× g) and supernatant and cell pellets were separated for further analysis. Data were collected during three independent experiments with 3–4 mice per group. All procedures were conducted in accordance with protocols approved by the local Ethics Committee (License number P033/2018, Belgium).
For microscopic evaluation of cells derived from air pouches, 75 × 10^3 cells were deposited evenly onto a glass slide by centrifugation using a Shandon Cytospin 2 apparatus (Thermo Shandon, Pittsburgh, PA, USA). Next, the preparations were stained with Hemacolor (Merck Chemicals, Darmstadt, Germany). Cells were divided into 4 categories; neutrophils, monocytes/macrophages, lymphocytes and other cells. For each condition, three times 100 cells were counted and the average was used as a final value.
Approximately 10^6 cells were incubated for 15 min with the Fc-receptor-blocking antibodies anti-CD16/anti-CD32 (BD Biosciences Pharmingen, San Diego, CA, USA) and with a Zombie Aqua™ viability dye (BioLegend, San Diego, CA, USA). […] Cells were analyzed on a BD LSR Fortessa X20 with DIVA software (BD, Franklin Lakes, NJ, USA, v9.0). Results were further analyzed with the FlowJo software (BD, Franklin Lakes, NJ, USA, v10.0). […]

[2] = test system: C57BL/6 mice; assay: Mouse endotoxemia model; type: in vivo; conditions: for levels of MMP-9 in plasma and lungs (Western blot): 5 h after LPS/compound administration
Method: Endotoxemia was induced in 8-week old C57BL/6 mice by intraperitoneal (i.p.) injection of lipopolysaccharides (LPS) (Escherichia coli 0111:B4, cat. no. 4391, Sigma-Aldrich, St. Louis, MO, USA ) at 10 mg/kg. Control mice were injected with an equal volume of vehicle (pyrogen-free phosphate-buffered saline). A volume of 500 µl compound 5 or 7, diluted in PBS with 2% DMSO (2 mg/mL), was injected i.p. at the same time as the LPS injection (± 50 mg/kg). […] After induction of endotoxemia, progression of the disease was monitored by hourly evaluation of mouse body temperature (rectal probe) and disease scoring by use of the mouse sepsis score (MSS) as described. When the MSS score was above 21, humane endpoints were reached and mice were sacrificed. Blood was collected by cardiac puncture with a heparin-coated needle and syringe, and immediately processed by centrifugation (2000× g for 10 min at 4 °C). The supernatant (plasma) was collected and stored for further analysis. Mice were dissected and organs were stored for further analysis. Bone marrow cells were collected from femora by flushing the medullary cavity with PBS and after centrifugation the cell pellet was immediately processed for downstream analysis. All procedures were conducted in accordance with protocols approved by the local ethics committee (project number P128/2019, KU Leuven, Belgium).
Tissues were homogenized and proteins extracted with a Precellys lysing kit (Bertin Technologies, Rockville, MD, USA). Briefly, tissues were placed in hard tissue homogenizing CK28 tubes (Bertin Technologies, Rockville, MD, USA). Then, 600 µL of RIPA buffer was added to all tubes and homogenization was done using the Precellys®24 (Bertin Technologies, Rockville, MD, USA). To precipitate all tissue debris, the tubes were centrifuged at 20,800× g and 4 °C for 15 min. Supernatant, containing soluble proteins, was collected and used for further analysis. Total protein content of all samples was determined by using a standard Bradford assay (Bio-Rad, Hercules, CA, USA). […] Proteins were transferred to PVDF membranes using the Trans-Blot Turbo Transfer System with associated materials and protocols (Biorad, Hercules, CA, USA). Next, membranes were blocked for 1 h in 5% BSA with TBST buffer (150 mM NaCl, 0.1% Tween 20, 50 mM Tris, pH 7.5). Membranes were incubated overnight with anti-MMP-9 (AF909, R & D systems, Minneapolis, MO, USA) or anti-tubulin (MA5-16308-HRP, Invitrogen, Carlsbad, CA, USA) antibodies. After washing, the blot was incubated with peroxidase-conjugated anti-goat IgG (PI-9500, Vector Labs, Burlingame, CA, USA) or anti-mouse IgG (115-035-071, Jackson ImmunoResearch, PA, USA) for 1 h at room temperature. […]

[3] = 10 mg/kg LPS i.p. and ± 50 mg/kg compound i.p. simultaneously, hourly

CC(C)[C@H](C(=O)O)N(CCNC(=O)c1cccc(C(=O)NCCN([C@@H](C(=O)O)C(C)C)S(=O)(=O)c2ccc(-c3ccccc3)cc2)c1)S(=O)(=O)c1ccc(-c2ccccc2)cc1 [Compound 7]
neutrophil migration towards E. coli-derived LPS ([1]; air pouch, 4 h): increases neutrophil migration | total amount of white blood cells recruited to the pouches [1]: significant increase compared to LPS alone | total amount of white blood cells recruited to the pouches ([1]; listed as bivalent inhibitor): amplified leukocyte influxes | disease score (mouse sepsis score, MSS) [2, 3]: (although not significant) increase in disease score; also recorded: did not alter disease scores compared to compound 5 | mouse body temperature [2, 3]: early and significant drop in mouse body temperature | levels of MMP-9 in plasma and lungs (Western blot) [2]: further induce the presence of MMP-9; also recorded: increased | levels of MMP-9 in plasma and lungs (Western blot) ([2]; listed as bivalent inhibitor): significantly increased levels of MMP-9 in plasma and lungs
